| melting point [°C] | Structure (SMILES) |
| --- | --- |
| 250 | O=c1ccc(S(=O)(=O)c2[nH]c3ccccc3c2Cl)n[nH]1 [Example 36, 6-(3-Chloro-indole-2-sulfonyl)-2H-pyridazin-3-one] |
| 233 to 235 | Cn1c(S(=O)(=O)c2ccc(=O)[nH]n2)cc2ccccc21 [Example 40, 6-(N-Methylindole-2-sulfonyl)-2H-pyridazin-3-one] |
| 186 to 189 | O=c1ccc(S(=O)(=O)c2oc3ccccc3c2O)n[nH]1 [Example 16, 6-(3-Hydroxy-benzofuran-2-sulfonyl)-2H-pyridazin-3-one] |

From patent US7572910B2, “Pyridazinone aldose reductase inhibitors” (Pfizer, Inc., priority 2004, dated 2009)
